In PMC12559140 (Molecular Neurobiology, 2025):
Several values for one entry are separate records, joined by “and”; a condition that tells them apart may be missing. Equal entries are not always repeated. Entries after “also recorded” stand apart in the source; their conditions may differ. Where two headings read alike, the source gives them in different places.

Experiments:
[1] = tested on: SH-SY5Y cells; details: cited from earlier work
[2] = tested on: (d)-SH-SY5Y cells; assay: Neurite analysis by microscopy (NeuronJ/ImageJ); type: cell-based, human; details: 250 µM H2O2 alone or with 0.1 µM drug
Protocol: SH-SY5Y cells were cultivated on collagen-coated 6-well plates at a density of 1.0 × 10^5 cells/well. Following the differentiation and treatments, microscopic examination of the cell groups was assessed using an inverted microscope (Zeiss Axio) at × 20 objective. Images were taken with multiple independent images for an individual treatment. Images were analyzed for neurite lengths and the number of homogeneous neurites per cell by NeuronJ of ImageJ software; soma size was determined by the Neurphology plugin of ImageJ [46]. Cells with cell extensions longer than twice the cell body diameter were considered neurite-bearing cells. 100 cells were counted from 10 different areas selected to determine neurite density (number of neurites per cell) and neurite length for each sample. The data were expressed as the mean ± SEM from three independent experiments.

[3] = tested on: cleaved caspase-3; assay: Cleaved caspase-3 ELISA in H2O2-treated cells; type: cell-based, human; details: 250 μM H2O2 alone (vs untreated) or with CNI (vs H2O2 alone), 24 h, n = 2
Protocol: The quantification of cleaved caspase-3 levels in cell lysates was performed using a commercially available human cleaved caspase-3 ELISA kit (E6970HU, BT Lab), according to the manufacturer’s instructions. SH-SY5Y cells were seeded in collagen-coated 6-well plates (1.0 × 10^5 cell/well) and differentiated. Cells were exposed to 250 μM H2O2 in the presence or absence of CNI compounds for 24 h. Following treatment, cells were collected, diluted with PBS, and destroyed by multiple freeze–thaw cycles, both treated and untreated. The levels of cleaved caspase-3 in the cell lysates were measured in the order recommended by the manufacturer. The BCA assay (44,132, Expedeon) was used to compare the total protein contents in treated and untreated cells.

[4] = tested on: (d)-SH-SY5Y cells; assay: Cell viability (MTT), H2O2 alone or co-treatment with H2O2 and drugs; details: for cell viability compared to H2O2 alone: 10 μM drug + 250 µM H2O2, 24 h
Protocol: (§1) Cells were cultured under standard conditions and used for experiments between passages 5 and 20 to maintain phenotypic consistency and avoid passage-related variability. To ensure the validity of the experimental data and avoid confounding effects, the cell line was routinely tested for Mycoplasma contamination using a PCR-based Mycoplasma detection kit (MycoFluor™ Mycoplasma Detection Kit, Thermo Fisher Scientific). […] Differentiated cells were plated at 1.0 × 10^4 cell/cm^2 confluency and treated with retinoic acid (RA) (R2625-50MG, Sigma Aldrich) at a 10 µM concentration in DMEM/F12 1% FBS for 6 days with RA pulses on every other day. The (d)-SH-SY5Y cells with acquired neuronal properties were used in our experiments involving toxin application and drug treatments.
(§2) (d)-SH-SY5Y cells were cultured in collagen-coated 96-well plates (1.0 × 10^4 cell/well). […] The appropriate dose and time for H2O2 used in our study were determined according to the findings obtained in a preliminary study. Data are expressed as a percentage of cell viability compared to control cultures.

[5] = molecular target: T1, AChE (Homo sapiens, UniProt P22303); assay: Cellular AChE activity (ELISA); type: cell-based; set-up: To extract the total protein from the treated (d)-SH-SY5Y cells; endogenous in cells; host or cells: differentiated SH-SY5Y (human neuroblastoma); details: (d)-SH-SY5Y
T1 sequence (P22303 32-614): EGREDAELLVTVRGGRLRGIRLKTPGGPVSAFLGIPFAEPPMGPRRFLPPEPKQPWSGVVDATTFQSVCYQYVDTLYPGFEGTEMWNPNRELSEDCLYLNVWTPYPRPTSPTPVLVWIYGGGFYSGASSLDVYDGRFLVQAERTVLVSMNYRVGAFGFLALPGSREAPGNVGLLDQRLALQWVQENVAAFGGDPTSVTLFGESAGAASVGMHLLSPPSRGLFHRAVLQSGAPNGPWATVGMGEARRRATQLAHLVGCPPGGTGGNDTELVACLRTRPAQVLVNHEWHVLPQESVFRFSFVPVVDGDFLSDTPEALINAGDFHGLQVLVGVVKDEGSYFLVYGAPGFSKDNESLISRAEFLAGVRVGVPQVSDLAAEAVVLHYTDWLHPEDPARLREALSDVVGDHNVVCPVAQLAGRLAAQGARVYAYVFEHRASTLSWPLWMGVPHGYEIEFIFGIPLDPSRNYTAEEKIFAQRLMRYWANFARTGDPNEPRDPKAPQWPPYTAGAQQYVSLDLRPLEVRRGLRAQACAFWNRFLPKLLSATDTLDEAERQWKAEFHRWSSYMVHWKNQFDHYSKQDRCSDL
Protocol: SH-SY5Y cells were cultivated on collagen-coated 6-well plates at a density of 1.0 × 10^5 cells/well. […] To extract the total protein from the treated (d)-SH-SY5Y cells, the cultures were rinsed twice with cold phosphate-buffered saline (PBS), followed by scraping to collect the cells. The resulting cell suspension was transferred to 1.5 mL tubes, which were then centrifuged at 10,000 × g for 5 min at 4 °C. The supernatant was carefully discarded, and the cell pellets were lysed using RIPA buffer. The total protein concentration present in the extracts was quantified using the Bicinchoninic Acid (BCA) assay. Any remaining protein was stored at − 80 °C until the time of enzymatic analysis. Relative AChE activity was determined using an equal amount of total protein and employing an Enzyme-Linked Immunosorbent Assay (ELISA) (Human AchE (Acetylcholinesterase) Kit, ELK4614-96 T), following the manufacturer’s guidelines.

[6] = tested on: AChE mRNA; assay: AChE mRNA expression by qRT-PCR; type: cell-based; details: 250 µM H2O2 alone (vs control) or with 0.1 µM drug (vs H2O2 alone), 24 h, 2^−ΔΔCt, GAPDH
Protocol: SH-SY5Y cells were cultivated on collagen-coated 6-well plates at a density of 1.0 × 10^5 cells/well. […]. The purity and concentration of the isolated RNA were assessed by measuring absorbance at 260 nm and 280 nm. cDNA was synthesized from 1 μg of total RNA using the OneScript Plus cDNA Synthesis Kit (G236, Abmgood). Subsequent to cDNA synthesis, quantitative real-time PCR (qRT-PCR) was conducted on a Roche Light Cycler 96 real-time PCR System utilizing the SYBR Green PCR Kit BlasTaq 2X qPCR MasterMix (G891, Abmgood) according to established protocols. All amplification reactions for each sample were performed in triplicate, and the experiments were repeated at least three times. The relative mRNA expression levels were quantified using the 2^−ΔΔCt method, normalizing the data against glyceraldehyde-3-phosphate dehydrogenase (GAPDH). Primer sequences are listed as follows: GAPDH forward, 5′-[…]-3′ and reverse, 5′-[…]-3′; AChE forward, 5′-[…]-3′ and reverse, 5′-[…]-3′.

[7] = molecular target: T1, AChE; assay: biochemical
Protocol: The inhibition of AChE activity in vitro was evaluated following the methodology outlined by Ellman et al., with some modifications implemented. […] The enzyme activity was expressed as a percentage relative to a control assay conducted without any inhibitor. The percentage inhibition of AChE activity was determined by comparing the absorbance values with those of the negative control, using the following equation:
AChE inhibition % = ((A0 − A1)/A0) × 100.
In this equation, A0 represents the absorbance of the control lacking the sample, while A1 indicates the absorbance of the sample tested.
Dose–response curves were generated and analyzed using GraphPad Prism version 8.0, applying a sigmoidal dose–response model with variable slope (four-parameter logistic regression). IC50 values were derived from the fitted curves and are expressed in micromolar (µM).

[8] = tested on: (d)-SH-SY5Y cells; assay: Cell viability (MTT), drugs alone; details: 0.01–10 μM, (d)-SH-SY5Y, no oxidative stress
Protocol: as §1, §2

[9] = Cell viability (MTT), drugs alone; details: human
Protocol: as §1, §2

[10] = 0.1 μM drug + 250 µM H2O2, 24 h, vs H2O2 alone

Compound: COc1ccc2c3c1O[C@H]1C[C@@H](O)C=C[C@@]31CCN(C)C2 [Gal, Galantamine]
- reduction in viability ([1]; 1.25 mg/mL): 17%
- CC50 [1]: ~5000 µM
- concentrations at which cell viability remained comparable to controls [1]: up to 10 μM
- concentrations with significant reductions in viability [1]: ≥ 100 µM
- concentrations with no cytotoxic effect ([1]; differentiated SH-SY5Y cells): up to 50 μM

Compound: OO [H2O2]
- Neurite index (neurite/cell) [2]: 0.8 ± 0.2 neurite/cell and 0.8 ± 0.2*^p=0.001 neurite/cell
- Neurite length [2]: 39.6 ± 6.3 μm and 39.6 ± 6.3*^p=0.001 μm
- caspase-3 levels [3]: significant increase in caspase-3 levels
- average cell viability ([4]; 250 µM H2O2 alone, 24 h, compared to the control group): 57.8 ± 5%
- increase of AChE activity compared to the control ([5]; 250 μM H2O2 alone, 24 h): 1.45 fold
- AChE mRNA expression [6]: significant upregulation of AChE mRNA expression

Compound: CC[C@@H]1/C=C(\C)C[C@H](C)C[C@H](OC)[C@H]2O[C@@](O)(C(=O)C(=O)N3CCCC[C@H]3C(=O)O[C@H](/C(C)=C/[C@@H]3CC[C@H](Cl)[C@H](OC)C3)[C@H](C)[C@@H](O)CC1=O)[C@H](C)C[C@@H]2OC [Pim, Pimecrolimus]
- Neurite index (neurite/cell) [2]: 1.1 ± 0.3 neurite/cell
- Neurite length [2]: 39.8 ± 5.7 μm
- IC50 [7]: 2.15 ± 0.1 µM
- caspase-3 levels [3]: significantly attenuated this increase
- protective effect on cell viability against H2O2 ([4]; 1 µM drug + 250 µM H2O2, 24 h): best protected cell viability
- cytotoxicity of drug alone [8]: did not show detectable cytotoxicity
- AChE mRNA expression [6]: significantly reduced AChE mRNA levels

Compound: C=CC[C@@H]1/C=C(\C)C[C@H](C)C[C@H](OC)[C@H]2O[C@@](O)(C(=O)C(=O)N3CCCC[C@H]3C(=O)O[C@H](/C(C)=C/[C@@H]3CC[C@@H](O)[C@H](OC)C3)[C@H](C)[C@@H](O)CC1=O)[C@H](C)C[C@@H]2OC [Tac, Tacrolimus]
- Neurite index (neurite/cell) [2]: 1.2 ± 0.1 neurite/cell
- Neurite length [2]: 34.5 ± 3.5 μm
- IC50 [7]: 4.24 ± 0.1 µM
- caspase-3 levels [3]: did not significantly modulate caspase-3 expression
- protective effect on cell viability against H2O2 [4, 10]: not statistically significant
- cell viability compared to H2O2 alone [4]: significantly reduced cell viability
- viability at 24 h, 1 µM [9]: 55.2 ± 2.5%
- viability at 24 h, 10 µM [9]: 50.1 ± 2%
- AChE mRNA expression [6]: significantly reduced AChE mRNA levels

Compound: C=C/C=C/C[C@@H](C)[C@@H](O)[C@H]1C(=O)N[C@@H](CC)C(=O)N(C)CC(=O)N(C)[C@@H](CC(C)C)C(=O)N[C@@H](C(C)C)C(=O)N(C)[C@@H](CC(C)C)C(=O)N[C@@H](C)C(=O)N[C@H](C)C(=O)N(C)[C@@H](CC(C)C)C(=O)N(C)[C@@H](CC(C)C)C(=O)N(C)[C@@H](C(C)C)C(=O)N1C [Voc, Voclosporin]
- Neurite index (neurite/cell) [2]: 1.3 ± 0.3^#p=0.02 neurite/cell
- Neurite length [2]: 45.4 ± 5.5^#p=0.04 μm
- AChE inhibitory effect compared to galantamine ([7]; 0.01 µM): higher AChE inhibitory effect compared to galantamine
- IC50 ([7]; read-out: IC50 against AChE, recombinant human AChE, Ellman method, 0.01–10 µM, four-parameter fit): 0.004 ± 0.0002 µM
- caspase-3 levels [3]: significantly attenuated this increase
- protective effect on cell viability against H2O2 [4, 10]: significantly increasing cell viability compared to the H2O2-only group
- cell viability compared to H2O2 alone [4]: further decrease in cell viability; also recorded: significantly reduced cell viability
- viability at 24 h, 1 µM [9]: 75.5 ± 4.8%
- viability at 24 h, 10 µM [9]: 62.1 ± 3.6%
- AChE activity ([5]; 0.1 μM drug + 250 μM H2O2, 24 h): 96.3 ± 2.3%
- AChE mRNA expression [6]: significantly reduced AChE mRNA levels
